# Tests used:
# mice [1] = assay: urine protein excretion in treated mice; format: in vivo
# Description: (§1) Other characteristics and advantages of the invention will become apparent from the example which follows relating to the preparation of the modified peptide and to the study of its activity against an autoimmune disease. Systemic lupus presents an easy clinical symptom to follow because of the large urinary protein excretion that accompanies the disorder that results from an associated renal condition, glomerulonephritis. Levels of protein secretion were followed to assess the effectiveness of the modified peptide in addressing the underlying autoimmune disorder.
# (§2) The specific peptide […] (SEQ ID NO: 1), which is a 21-amino acid sequence of the 70 kDa snRNP protein corresponding to residues 131-151, was synthesized in its phosphorylated form (in the 10 position—P10). This self-protein, which is normally present in each cell, is recognized by T-cells and antibodies from lupus patients and mice as an antigen toward which the immune system is reacting, generating a so-called autoimmune reaction.
# CD4+ T cells = assay: production of IL-2 (interluekin-2) by CD4+ T cells; format: cell-based, mice
# Description: as §2
# mice [2] = assay: survival rate of mice after multiple administrations of peptide; format: in vivo
# Description: as §1, §2
sequence,measurement,setting,value
RIHMVYSKRSGKPRGYAFIEY [P10],urine protein excretion,mice [1],reduced
same,production of IL-2 (interluekin-2) by CD4+ T cells,CD4+ T cells,increased significantly
same,survival rate,"mice [2]; mice, after multiple administrations (similar to a vaccine), compared to 0%",55%
"RIHMVYSKRSGKPRGYAFIEY (listed as Homo sapiens) [natural (non-phosphorylated) peptide, reference compound]",improvement in the survival rate (in words),"mice [2]; mice, after administration of the peptide",unable to improve significantly the survival rate
"RIHMVYSKRSGKPRGYAFIEY (lysine acetylation, position unspecified; listed as Homo sapiens) [acetylated peptide]",activity (preliminary data),"mice [2]; preliminary data, compared with the phosphorylated peptide P10",even stronger activity
